Laboratory results reported in ChEMBL document CHEMBL2440022, “Development of a novel fluorine-18 labeled deuterated fluororasagiline ([(18)F]fluororasagiline-D2) radioligand for PET studies of monoamino oxidase B (MAO-B)” (Bioorg Med Chem, 2013).
One block for each compound: values may come before it.

What was measured:
[1] = molecular target: T1, Amine oxidase [flavin-containing] B (Homo sapiens, UniProt P27338); test: Inhibition of recombinant human MAO-B expressed in insect cells using kynuramine as substrate assessed as formation of 4-hydroxyquinoline measured every 5 mins for 30 mins; type: cell-based
T1 sequence (P27338 whole entry): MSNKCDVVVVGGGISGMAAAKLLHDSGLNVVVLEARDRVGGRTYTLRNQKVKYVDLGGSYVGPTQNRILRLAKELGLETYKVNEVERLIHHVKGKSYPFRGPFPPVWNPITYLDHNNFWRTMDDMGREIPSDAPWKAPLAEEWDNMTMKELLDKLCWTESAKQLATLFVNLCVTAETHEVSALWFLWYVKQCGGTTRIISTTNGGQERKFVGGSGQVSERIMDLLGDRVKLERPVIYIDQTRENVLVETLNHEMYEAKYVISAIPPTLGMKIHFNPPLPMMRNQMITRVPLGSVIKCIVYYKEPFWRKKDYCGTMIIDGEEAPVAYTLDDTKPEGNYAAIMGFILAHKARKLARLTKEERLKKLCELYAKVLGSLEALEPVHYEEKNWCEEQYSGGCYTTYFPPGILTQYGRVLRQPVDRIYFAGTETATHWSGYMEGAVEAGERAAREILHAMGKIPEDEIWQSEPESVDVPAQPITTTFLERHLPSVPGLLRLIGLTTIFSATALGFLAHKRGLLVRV

[2] = molecular target: T2, Amine oxidase [flavin-containing] A (Homo sapiens, UniProt P21397); test: Inhibition of recombinant human MAO-A expressed in insect cells using kynuramine as substrate assessed as formation of 4-hydroxyquinoline measured every 5 mins for 30 mins
T2 sequence (P21397 whole entry): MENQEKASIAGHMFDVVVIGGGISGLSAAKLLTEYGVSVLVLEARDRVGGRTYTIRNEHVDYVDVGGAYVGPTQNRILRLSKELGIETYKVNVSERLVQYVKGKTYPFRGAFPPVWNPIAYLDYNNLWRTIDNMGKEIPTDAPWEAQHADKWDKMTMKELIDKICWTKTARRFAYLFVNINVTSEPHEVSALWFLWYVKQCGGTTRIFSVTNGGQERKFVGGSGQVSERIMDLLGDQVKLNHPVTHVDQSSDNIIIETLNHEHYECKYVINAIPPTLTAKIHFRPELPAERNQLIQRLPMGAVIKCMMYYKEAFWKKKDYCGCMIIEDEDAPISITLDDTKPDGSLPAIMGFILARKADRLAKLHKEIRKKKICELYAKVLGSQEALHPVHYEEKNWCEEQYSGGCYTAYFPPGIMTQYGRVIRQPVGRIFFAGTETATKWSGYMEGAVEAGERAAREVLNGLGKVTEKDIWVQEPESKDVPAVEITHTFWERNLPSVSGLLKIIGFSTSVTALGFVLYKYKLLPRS

Homo sapiens = species: Homo sapiens; test: Selectivity ratio of IC50 for recombinant human MAO-B to IC50 for recombinant human MAO-A; details: tested as the 2H-labelled form
Thalamus [3] = test: Drug uptake in cynomolgus monkey thalamus at 168 to 174 MBq, iv after 60 mins by PET analysis; type: ADME, organism-based, Macaca fascicularis; details: in vivo, 1 h
[4] = Drug uptake in cynomolgus monkey striatum at 168 to 174 MBq, iv after 60 mins by PET analysis; type: ADME, organism-based, Macaca fascicularis; details: in vivo, 1 h
Brain = test: Drug uptake in cynomolgus monkey brain at 168 to 174 MBq, iv after 4 mins by PET analysis; type: ADME, organism-based, Macaca fascicularis; details: in vivo
[5] = Chemical stability of the compound in PBS at pH 7.4 after 180 mins; type: physicochemical; details: read-out: Stability
Cynomolgus monkey [6] = test: Drug metabolism in cynomolgus monkey plasma assessed as radiometabolite M2 retention time at 168 to 174 MBq, iv by RP-HPLC analysis; type: ADME, organism-based, Macaca fascicularis
Cynomolgus monkey [7] = test: Drug metabolism in cynomolgus monkey plasma assessed as radiometabolite M1 retention time at 168 to 174 MBq, iv RP-HPLC analysis; type: ADME, organism-based, Macaca fascicularis
[8] = Drug recovery in cynomolgus monkey plasma at 168 to 174 MBq, iv by RP-HPLC analysis in presence of acetonitrile; type: ADME, organism-based, Macaca fascicularis; details: read-out: Drug recovery
[9] = Stability in cynomolgus monkey plasma assessed as unchanged parent compound at 168 to 174 MBq, iv after 120 mins by RP-HPLC analysis; type: ADME, organism-based, Macaca fascicularis; details: read-out: Stability
[10] = Stability in cynomolgus monkey plasma assessed as unchanged parent compound at 168 to 174 MBq, iv after 45 mins by RP-HPLC analysis; type: ADME, organism-based, Macaca fascicularis; details: read-out: Stability
[11] = Stability in cynomolgus monkey plasma assessed as unchanged parent compound at 168 to 174 MBq, iv after 15 mins by RP-HPLC analysis; type: ADME, organism-based, Macaca fascicularis; details: read-out: Stability
[12] = Drug uptake in cynomolgus monkey cerebellum at 168 to 174 MBq, iv after 60 mins by PET analysis in presence of L-deprenyl; type: ADME, organism-based, Macaca fascicularis; details: in vivo, 1 h
[13] = Drug uptake in cynomolgus monkey cortex at 168 to 174 MBq, iv after 60 mins by PET analysis in presence of L-deprenyl; type: ADME, organism-based, Macaca fascicularis; details: in vivo, 1 h
Thalamus [14] = test: Drug uptake in cynomolgus monkey thalamus at 168 to 174 MBq, iv after 60 mins by PET analysis in presence of L-deprenyl; type: ADME, organism-based, Macaca fascicularis; details: in vivo, 1 h
[15] = Drug uptake in cynomolgus monkey striatum at 168 to 174 MBq, iv after 60 mins by PET analysis in presence of L-deprenyl; type: ADME, organism-based, Macaca fascicularis; details: in vivo, 1 h
[16] = Drug uptake in cynomolgus monkey cortex at 168 to 174 MBq, iv after 60 mins by PET analysis; type: ADME, organism-based, Macaca fascicularis; details: in vivo, 1 h
[17] = Drug uptake in cynomolgus monkey cerebellum at 168 to 174 MBq, iv after 60 mins by PET analysis; type: ADME, organism-based, Macaca fascicularis; details: in vivo, 1 h

Ratio IC50 (Homo sapiens): 19
SMILES: C#CCN[C@@H]1c2ccccc2C[C@H]1F

IC50 [1]: 27 nM
SMILES: C#CCN[C@H]1c2ccccc2C[C@@H]1F [FLUORORASAGILINE]

Further lines, the compound ahead of its results:

SMILES: [2H]C([2H])(C#C)N[C@@H]1c2ccccc2C[C@H]1F
IC50 [1]: 173 nM
IC50 [2]: 9900 nM

SMILES: [2H]C([2H])(C#C)N[C@@H]1c2ccccc2C[C@H]1[18F] [[18F]FLUORORASAGILINE-D2]
SUV (Thalamus [3]): 1.46%
SUV [4]: 1.38%
SUV (Brain): 270%
remaining at 3 h [5]: > 97%
Retention_time (Cynomolgus monkey [6]): 6.7 min
Retention_time (Cynomolgus monkey [7]): 2.9 min
recovery [8]: > 95%
remaining at 2 h [9]: 20%
remaining at 0.75 h [10]: 50%
remaining at 0.25 h [11]: 75%
SUV [12]: 0.54%
SUV [13]: 0.66%
SUV (Thalamus [14]): 0.78%
SUV [15]: 0.77%
SUV [16]: 1.1%
SUV [17]: 0.99%

SMILES: C#CCN[C@H]1c2ccccc2C[C@@H]1[18F] [[18F]FLUORORASAGILINE]
remaining at 2 h [9]: 35%
remaining at 0.75 h [10]: 55%
